Assay results from the NIST ThermoML archive (doi:10.1016/j.jct.2012.06.030).

Experiment: molar heat capacity at constant pressure; xn = mol fraction of the nth substance listed
Conditions: 101 kPa, Liquid, Small sample (50 mg) DSC, x2 = 0

O [water] + CCCCCC[n+]1ccc2ccccc2c1.N#C[S-]
Conditions | molar heat capacity at constant pressure [J/K/mol]
288.15 K | 75.9
293.15 K | 75.8
298.15 K | 75.7
303.15 K | 75.7
308.15 K | 75.6
313.15 K | 75.5
318.15 K | 75.5
323.15 K | 75.4
328.15 K | 75.4
333.15 K | 75.3
338.15 K | 75.3
343.15 K | 75.3
